Where two headings read alike, the source gives them in different places.
Biological target: human Pim-1 (Homo sapiens (Human), UniProt P11309)
Experiment: biochemical
Assay type: biochemical
Method: The human Pim-1 inhibitory activity of the test compounds was evaluated as follows.
(1) Purification of Human Pim-1
DNA fragment in which a His-Tag sequence and a translation termination sequence are added to the 3′-end of human Pim-1 translation sequence was amplified by PCR (Polymerase Chain Reaction), using human Pim-1 gene-inserted plasmid DNA (Kazusa DNA Laboratory, model number FXC11400) as a template. The amplified DNA fragment was fused with pGEx-6P-1 (GE Healthcare Japan, model number 27-4597-1) digested with BamHI and EcoRI using In-Fusion HD Cloning Kit (Takara Bio, model number 639649). […] The base sequence of Pim-1 cloned into vector was determined by Dye Terminator method using BigDye Terminator v3.1 Cycle Sequencing Kit (Applied Biosystems, model number 4337456). […] Escherichia coli BL21 (DE3) (Merck KGaA, model number 69449-4) transformed with human Pim-1-expressed plasmid DNA was cultured in 2×YT medium (Becton Dickinson, model number 2404020) at 30° C., until the optical concentration at 620 nm (OD620) reached 0.6, and then cultured overnight at 20° C. in the presence of 0.5 mmol/L isopropyl b-D-1-thiogalactopyranoside. After the completion of so the culture, the cells were collected and suspended in Homogenate Buffer (50 mmol/L Tris-HCl (pH 7.5), 500 mmol/L NaCl, 1% Tween20, complete, EDTA-free (Roche, model number 1873580)), and the suspended cells were lysed by passing through a microfluidizer M-110H (Mizuho Kogyo Co., Ltd.). The lysate was centrifuged at 10,100×g for 10 minutes, 4° C., and the supernatant was filtered through MILLEX-HV Filter (0.45 μm) (Millipore, SLHV033RS) to remove the cell residues. The filtrate was loaded onto complete His-Tag Purification Resin (Roche Diagnostics, model number 05 893 682 0.01). The column was washed with Equilibration Buffer-1 (50 mmol/L Tris-HCl (pH 7.5), 500 mmol/L NaCl, 1% Tween 20) containing 5 mmol/L Imidazole, followed by Equilibration Buffer-1 containing 50 mmol/L Imidazole, the human Pim-1 to which GST-Tag derived from pGEx-6P-1 was eluted with Equilibration Buffer-1 containing 150 mmol/L imidazole. […] The protease reaction was carried out by stirring overnight at 4° C., and the human Pim-1 in which the GST-Tag sequence was cleaved was eluted. The eluate was loaded onto a gel filtration column (Superdex-200 […] (GE Healthcare, model number 17-5175-01)) equilibrated with Equilibration Buffer-3 (50 mmol/L Tris-HCl (pH 7.5), 500 mmol/L NaCl, 0.05% Tween20, 0.5 mmol/L EDTA, 2 mmol/L DTT, 10% Glycerol), and eluted. The eluate was used as a human Pim-1 purified fraction.
The protein concentration of the human Pim-1 purified fraction was measured with Pierce 660 nm Protein Assay Reagent (Thermo Fisher Scientific, model number 22660). The purified fraction was rapidly frozen in liquid nitrogen, and then stored at −80° C. The His-Tag-added human Pim-1 was detected by Western blotting using a mouse anti-His monoclonal antibody (WAKO, model number 011-23091).
(2) Evaluation of Human Pim-1 Inhibitory Activity
The calculation of the Pim-1 inhibitory activity of the compound was performed using the following solution according to the protocol attached to ADP-Glo Kinase Assay (cat. V9102, Promega). The purified enzyme of human Pim-1 described above was used.
(i) Preparation of Solution
The kinase buffer solution (50 mmol/L HEPES (pH 7.5), 5 mmol/L MgCl2, 1 mmol/L DTT, 0.05% BSA) was prepared by dissolving HEPES (Jena Bioscience), MgCl2 (Sigma-Aldrich), DTT (Sigma-Aldrich) and BSA (Sigma-Aldrich) in purified water.
The ATP solution (288 μmol/L) was prepared by dissolving 100 mmol/L ATP (Promega) in the kinase buffer solution.

[1] = Ki converted from IC50; purified human Pim-1, Pim2tide substrate, ADP-Glo; read-out: hPim1 Ki
[2] = hPim1 Ki (nM), Ki converted from IC50; purified human Pim-1, Pim2tide substrate, ADP-Glo

Sequence of human Pim-1 (P11309 whole entry): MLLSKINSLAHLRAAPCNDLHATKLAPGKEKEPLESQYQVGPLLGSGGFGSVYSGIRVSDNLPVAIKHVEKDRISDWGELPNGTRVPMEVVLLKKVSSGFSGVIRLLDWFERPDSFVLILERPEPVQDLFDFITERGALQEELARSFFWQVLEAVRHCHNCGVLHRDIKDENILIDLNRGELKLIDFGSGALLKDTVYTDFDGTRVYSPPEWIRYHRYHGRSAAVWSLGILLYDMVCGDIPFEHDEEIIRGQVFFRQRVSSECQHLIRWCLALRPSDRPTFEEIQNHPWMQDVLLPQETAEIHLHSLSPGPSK

SMILES	Ki [1] [nM]	further results
O=C1NCCN(CCC2CCC(C(=O)O)CC2)c2c1oc1ccc(C(F)(F)F)cc21 (stereo not shown) [Example 86]	4.06	
O=C1NC2(CC2)CN(CC[C@@H]2CO[C@@H](CO)CO2)c2c1oc1ccc(C(F)(F)F)cc21 [Example 152]	0.0929	
CS(=O)(=O)C[C@@H]1CO[C@@H](CCN2CC3(CC3)NC(=O)c3oc4ccc(C(F)(F)F)cc4c32)CO1 [Example 159]	0.164	
O=C1NC2(CC2)CN(CC(F)(F)[C@H]2CO[C@H](CO)CO2)c2c1oc1ccc(C(F)(F)F)cc21 [Example 164]	0.0193	
O=C1NCCN(CCC2CCC(CO)CCO2)c2c1oc1ccc(C(F)(F)F)cc21 (stereo not shown) [Example 9]	0.481	
CC1(O)CCC(C(F)(F)CN2CCNC(=O)c3oc4ccc(C(F)(F)F)cc4c32)CC1 (single isomer, unassigned) [Example 147]	0.213	
O=C1CCC(F)(F)C(C(F)(F)CN2CCNC(=O)c3oc4ccc(C(F)(F)F)cc4c32)C1 (racemic) [Example 61]	0.0391	
O=C1NCCN(CC[C@H]2CO[C@@H](CO)CO2)c2c1oc1ccc(C(F)(F)F)cc21 [Example 42]	0.567	
O=C1NCCN(CC(F)(F)C2COCCO2)c2c1oc1ccc(C(F)(F)F)cc21 (single isomer, unassigned) [Example 68]	0.0461	
N#CC1(CO)CCC(CCN2CCNC(=O)c3oc4ccc(C(F)(F)F)cc4c32)CC1 (stereo not shown) [Example 163]	0.0445	
O=C1NCCN(CCC2CCCCC2)c2c1oc1ccc(C(F)(F)F)cc21 [Example 25]	11	
O=C1NCCN(CCC2CC3CCC(C2)O3)c2c1oc1ccc(C(F)(F)F)cc21 (stereo not shown) [Example 81]	1.11	
C[C@]1(O)CC[C@H](CCN2CCNC(=O)c3oc4ccc(C(F)(F)F)cc4c32)CC1 [Example 80]	0.205	
O=C1NCCN(CC[C@H]2CC[C@](O)(CCO)CC2)c2c1oc1ccc(C(F)(F)F)cc21 [Example 108]	0.298	
O=C1NCCN(CCC2CCC(c3ncn[nH]3)CC2)c2c1oc1ccc(C(F)(F)F)cc21 (stereo not shown) [Example 105]	0.607	
O=C1NCCN(CC(F)(F)[C@H]2CO[C@H](CO)CO2)c2c1oc1ccc(C(F)(F)F)cc21 [Example 95, 1-(2,2-difluoro-2-((2R,5R)-5-(hydroxymethyl)-1,4-dioxan-2-yl)ethyl)-9-(trifluoromethyl)-1,2,3,4-tetrahydro-5H-benzofuro[3,2-e][1,4]diazepin-5-one]	0.0443	
CC1(CO)CCC(CCN2CCNC(=O)c3oc4ccc(C(F)(F)F)cc4c32)CC1 (stereo not shown) [Example 94]	0.129	
O=C1NCCN(CC(F)(F)C2CC(OC(F)F)CCO2)c2c1oc1ccc(C(F)(F)F)cc21 (stereo not shown) [Example 54]	0.133	
O=C1NCCN(CCC2CCC(O)(C(=O)O)CC2)c2c1oc1ccc(C(F)(F)F)cc21 (stereo not shown) [Example 102]	5.47	
[2H]C1(O)CCC(CCN2CCNC(=O)c3oc4ccc(C(F)(F)F)cc4c32)CC1 (relative stereo) [Example 91]		Ki [2]: 0.198 nM
O=C1NCCN(CCC2CC3(CC(CO)C3)C2)c2c1oc1ccc(C(F)(F)F)cc21 (racemic) [Example 143]	0.947	
O=C1NCCN(CC(F)(F)C2CCC(O)(CO)CC2)c2c1oc1ccc(C(F)(F)F)cc21 (stereo not shown) [Example 120]	0.006	
CC1(O)CCC(C(F)(F)CN2CCNC(=O)c3oc4ccc(C(F)(F)F)cc4c32)CC1 (single isomer, unassigned) [Example 148]	0.114	
O=C1NCCN(CC(F)(F)C2CC(CO)CCO2)c2c1oc1ccc(C(F)(F)F)cc21 (single isomer, unassigned) [Example 15]		Ki [2]: 0.0289 nM
O=C1NCCN(CCC2CCC(O)(CF)CC2)c2c1oc1ccc(C(F)(F)F)cc21 (stereo not shown) [Example 144]	0.801	

SMILES	Ki [1] [nM]	further results
O=C1NCCN(CCC2CC(O)(CO)CCO2)c2c1oc1ccc(C(F)(F)F)cc21 (stereo not shown) [Example 4]	0.442	
O=C1NCCN(CC(F)(F)C2CC3(CCO2)COC3)c2c1oc1ccc(C(F)(F)F)cc21 (racemic) [Example 57]	0.0448	
O=C1NCCN(CCC2CCC(O)(C(F)(F)CO)CC2)c2c1oc1ccc(C(F)(F)F)cc21 (single isomer, unassigned) [Example 119]	0.144	
O=C1NCCN(CCC2COCCO2)c2c1oc1c(F)cc(C(F)(F)F)cc21 (racemic) [Example 76]	0.399	
CS(=O)(=O)CC1(O)CCC(CCN2CCNC(=O)c3oc4ccc(C(F)(F)F)cc4c32)CC1 (stereo not shown) [Example 122]	0.532	
O=C1CCC(CCN2CCNC(=O)c3oc4ccc(C(F)(F)F)cc4c32)CC1 [Example 75]	1.62	
O=C1NCCN(CC(F)(F)C2CCC(O)CC2)c2c1oc1ccc(C(F)(F)F)cc21 (stereo not shown) [Example 107, 1-(2,2-difluoro-2-(4-hydroxycyclohexyl)ethyl)-9-(trifluoromethyl)-1,2,3,4-tetrahydro-5H-benzofuro[3,2-e] [1,4]diazepin-5-one]	0.0862	
CNC(=O)C1CCC(CCN2CCNC(=O)c3oc4ccc(C(F)(F)F)cc4c32)CC1 (stereo not shown) [Example 100]	1	
N#CC[C@H]1CO[C@@H](CCN2CCNC(=O)c3oc4ccc(C(F)(F)F)cc4c32)CO1 (racemic) [Example 142]	4.4	
O=C1NCCN(CC(F)(F)C2CC(O)(C(F)F)CCO2)c2c1oc1ccc(C(F)(F)F)cc21 (single isomer, unassigned) [Example 53]	0.0921	
CN(C)C(=O)C1CCC(CCN2CCNC(=O)c3oc4ccc(C(F)(F)F)cc4c32)CC1 (stereo not shown) [Example 101]	0.775	
COC1(CO)CCOC(C(F)(F)CN2CCNC(=O)c3oc4ccc(C(F)(F)F)cc4c32)C1 (stereo not shown) [Example 34]	0.0206	
O=C1NCCN(CC(F)(F)[C@@H]2CO[C@H](CO)CO2)c2c1oc1ccc(C(F)(F)F)cc21 [Example 78]	0.227	
O=C1NCCN(CC(F)(F)C2CC3(CCC2(F)F)OCCO3)c2c1oc1ccc(C(F)(F)F)cc21 (racemic) [Example 55]	0.115	
CC1(C)OCC(C(F)(F)CN2CCNC(=O)c3oc4ccc(C(F)(F)F)cc4c32)CO1 [Example 71]	1.3	
COC[C@]1(OC)CC[C@@H](CCN2CCN(C)C(=O)c3oc4ccc(C(F)(F)F)cc4c32)CC1 [Example 2-05]	13.2	
CC1COCC(CCN2CCNC(=O)c3oc4ccc(C(F)(F)F)cc4c32)O1 (racemic) [Example 114]	0.708	
O=C1NCCN(CCC2CCC(O)(CO)CC2)c2c1oc1ccc(C(F)(F)F)cc21 (stereo not shown) [Example 89]		Ki (read-out: hPim1 Ki; Ki converted from IC50; purified human Pim-1, Pim2tide substrate, ADP-Glo): 0.0329 nM
O=C1NCCN(CC[C@H]2CC[C@](O)(C(F)(F)F)CC2)c2c1oc1ccc(C(F)(F)F)cc21 [Example 85]	4.08	
CC1(O)CCOC(C(F)(F)CN2CCNC(=O)c3oc4ccc(C(F)(F)F)cc4c32)C1 (stereo not shown) [Example 67, 1-(2,2-difluoro-2-(4-hydroxy-4-methyltetrahydro-2H-pyran-2-yl)ethyl)-9-(trifluoromethyl)-1,2,3,4-tetrahydro-5H-benzofuro[3,2-e][1,4]diazepin-5-one]	0.242	
CN1CCN(CC(F)(F)C2CC(O)(CO)CCO2)c2c(oc3ccc(C(F)(F)F)cc23)C1=O (stereo not shown) [Example 21]	0.33	
CC(C)(O)C1(O)CCOC(C(F)(F)CN2CCNC(=O)c3oc4ccc(C(F)(F)F)cc4c32)C1 (stereo not shown) [Example 30]	0.0577	
C[C@]1(O)CC[C@@H](CCN2CCNC(=O)c3oc4ccc(C(F)(F)F)cc4c32)CC1 [Example 79]	0.705	
O=C1NCCN(CC[C@@H]2CO[C@@H](CO)CO2)c2c1oc1ccc(C(F)(F)F)cc21 [Example 74]	0.738	

Reference: US11643417B2, “Tetrahydrobenzofurodiazepinone compound and pharmaceutical use thereof” (priority 2020, dated 2023)
